How the values were obtained:
[1] = Lethality in CD1 mice; conditions: 50 μl of 200 μM, after 24 h
[2] = system: human basophils; experiment: IL-3 dependent IL-13 secretion by human basophils; assay type: cell-based; conditions: under the conditions tested
[3] = system: JNK; experiment: Signaling in human DCs: JNK; assay type: cell-based; conditions: under the conditions tested
Description: Human PBMC were isolated by Ficoll density gradient centrifugation from leukopacks supplied by the Department of Transfusion Medicine (Clinical Center, National Institute of Health, Bethesda, Md.). Monocytes were purified (>95%) from human PBMC with MACS CD14 monocyte isolation kit (Miltenyi Biotech Inc., Auburn, Calif.) according to the manufacturer's instruction. DCs were generated as described previously (Yang et al., 2001). In brief, DCs were generated by incubating purified monocytes at 2×10^5/ml in RPMI 1640 containing 10% FBS, 2 mM glutamine, 25 mM HEPES, 100 U/ml penicillin, 100 ug/ml streptomycin, 50 ng/ml recombinant human GM-CSF (PeproTech, Rocky Hill, N.J.), and 50 ng/ml recombinant human IL-4 (PeproTech) at 37° C. in a CO2 (5%) incubator for 7 days. On day 3 and 5 of the incubation, half of the culture medium was replaced with pre-warmed (37° C.) fresh GM-CSF- and IL-4-containing medium. On day 7, DCs were collected, washed three times with PBS, and serum-starved for 8 hours by incubating in serum-free RPMI-1640 containing GM-CSF and IL-4 (2×10^5/ml) at 37° C. in a CO2 (5%) incubator. Subsequently, DCs (2×10^6/sample) were incubated at 37° C. in the absence or presence of c-di-GMP or GMP (Sigma, St. Louis, Mo.) at concentrations specified for 5 or 30 minutes. […]

[4] = system: human colon carcinoma cells; conditions: synthetic c-di-GMP; cited from earlier work
[5] = system: TLR1/2, TLR3, TLR4/MD2, TLR5, TLR2/6, TLR7, TLR8, and TLR9; experiment: HEK cells stably transfected with TLRs, IL-8 transcripts by QPCR; assay type: cell-based, human; conditions: 200 uM, 3 hours
Description: To test this hypothesis, human embryonic kidney (HEK) cells, which are normally unresponsive to TLR ligand stimulation, were stably transfected with TLR1/2, TLR3, TLR4/MD2, TLR5, TLR2/6, TLR7, TLR8, and TLR9. HEK 293 cells were cultured in Dulbecco's modified Eagle's medium supplemented with 10% fetal bovine serum. Cells were plated in 24-well tissue culture plates (1×10^5 cells/well) and maintained in the above medium for 24 h. The following day, cells were either left untreated or incubated with the indicated amount of TLR ligand. After the 3 hour treatment period, cells were harvested for total RNA using the Qiagen RNeasy kit per the manufacturer's protocol. The total RNA was converted to cDNA and QPCR was performed to determine the number of copies of IL-8.

[6] = system: p38 MAPK; experiment: Western blot signaling in human macrophages: p38 MAPK; assay type: cell-based; conditions: human M-CSF-induced monocyte-derived macrophages
Description: Preparation of macrophages was performed as previously described (Akagawa et al., 1996). Briefly, fully differentiated macrophages from human PBMC were isolated from leukapheresis preparations obtained by the Blood Bank, Clinical Center, National Institutes of Health, Bethesda, Md. The leukocyte-rich preparation was overlaid on Accu-prep in 50 ml tubes and the tubes were centrifuged at 800 × g for 20 min at room temperature. PBMC fractions were collected, washed once with PBS at room temperature and twice with complete medium at 4° C. and resuspended in the same medium. Monocytes were further purified by using iso-osmotic Percoll gradient (Amersham Biosciences). At this stage, the purity of monocytes was higher than 90%. One and half million cells were placed on a 12-well plate in 1.5 ml RPMI1640 containing 50 ng/ml human M-CSF. On day 4, 1 ml of the medium was replaced with 1 ml of fresh medium containing 50 ng human M-CSF. On day 7, non-adherent cells were washed out and adherent cells were used as macrophages.
Western blot analysis of macrophages was performed as previously described (Matsuyama et al., 2003). Briefly, prepared macrophages were starved in RPMI 1640 without FCS for 10 h. […] Proteins were analyzed on 12% polyacrylamide gels by SDS-PAGE and transferred electrophoretically to nitrocellulose membranes at 150 mA for 1 h in a semi-dry system. […]

[7] = system: S. aureus; conditions: cited from earlier work

For `Nc1nc(=O)c2ncn([C@@H]3OC4COP(=O)(O)O[C@H]5[C@@H](O)[C@H](n6cnc7c(=O)nc(N)[nH]c76)O[C@@H]5COP(=O)(O)OC4C3O)c2[nH]1` (stereo partly drawn) [c-di-GMP, Bis(3′→5′)-cyclic diguanylic acid], the “lethality in CD1 mice” value [1] was “non-lethal”, the “effect on IL-13 induced by IL-3” value [2] was “essentially no inhibition” and the “activation of JNK” value [3] was “did not activate”. The “basal and growth factor induced proliferation of human colon carcinoma cells” value [4] was “inhibits”, the “stimulation of LPS-sensitive MD2/TLR4-HEK cell line” value [5] was “failed to stimulate” and the “activation of TLR expressing HEK cell lines (IL-8 transcripts)” value ([5]; FIG. 14) was “none of the TLR expressing cell lines were activated”. For the same molecule, the “phosphorylation of p38 MAPK” value [6] was “no phosphorylation”, the “colonization of the mouse mammary glands by S. aureus” value ([7]; intramammary, at time of challenge and 4 h post-inoculation) was “significantly decreased” and the “in-vivo dose giving maximal benefit” value ([7]; previously published studies) was 200 nmoles/animal.

From US7592326B2, “Method for stimulating the immune, inflammatory or neuroprotective response” (priority 2004, dated 2009)
